Assay results reported in publication PMC3425665 (Journal of the American Chemical Society, 2012).

Target: aspartate aminotransferase (AAT), K258A mutant (Escherichia coli, UniProt P00509, K246A, form not given)
Experiment: X-ray crystallography
Type: binding
Settings: covalent external aldimine with L-aspartate; replaces PLP

Chain of aspartate aminotransferase (AAT), K258A mutant (P00509 whole entry K246A, form open): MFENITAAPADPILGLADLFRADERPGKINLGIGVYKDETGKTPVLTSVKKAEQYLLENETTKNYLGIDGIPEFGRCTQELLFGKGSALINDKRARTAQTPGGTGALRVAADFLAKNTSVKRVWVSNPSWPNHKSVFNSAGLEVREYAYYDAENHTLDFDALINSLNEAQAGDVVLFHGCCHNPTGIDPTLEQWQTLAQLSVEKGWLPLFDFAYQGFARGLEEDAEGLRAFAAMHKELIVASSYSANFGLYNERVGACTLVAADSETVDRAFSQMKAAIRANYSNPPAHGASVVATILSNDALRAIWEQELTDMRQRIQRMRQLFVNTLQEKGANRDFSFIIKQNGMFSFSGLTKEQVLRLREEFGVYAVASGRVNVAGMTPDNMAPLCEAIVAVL

## Cc1ccc(COP(=O)(O)O)c(C=O)c1O [deazaPLP]
  X-ray crystallography (1.5 Å): structure of the K258A/deazaPLP/L-aspartate external aldimine intermediate determined here by X-ray crystallography
